Test results published in patent US4087328A, “Purification and immobilization of sulfhydryl oxidase” (Research Triangle Institute, priority 1975, dated 1978).

System: sulfhydryl oxidase
Experiment: Effect of metal ions and EDTA on sulfhydryl oxidase activity
Type: biochemical, bovine
Protocol: In the second method of assay, the rate of O2 consumption was measured with an oscillating platinum electrode using a Gilson model K Oxygraph. In a typical assay, 0.2 ml of enzyme solution was added to 1.5 ml of 0.8 mM GSH which had been equilibrated at 35° in the electrode cell. […] Enzymic reaction rates were calculated from the initial slopes obtained.
Assays were performed in phosphate at pH 7.0 and 35° using 0.8 mM GSH as substrate. An aliquot of the stock enzyme solution was removed and assayed in the presence of 1.0 mM EDTA. […] Controls were prepared using boiled enzyme and also using the dialysate containing the metal ion. In both cases, significant O2 consumption was not observed.

[1] = EDTA-treated enzyme dialyzed against 1.0 mM solution of the metal ion, phosphate pH 7.0, 35°, 0.8 mM GSH

Row | Compound | Enzyme activity [1] [μmol O2 consumed/min.] | other results
1 | O=C(O)CN(CCN(CC(=O)O)CC(=O)O)CC(=O)O [EDTA] |  | Effect of EDTA treatment on enzyme activity: complete loss of activity; Enzyme activity (pH 7): 0.012 μmol O2 consumed/min.
2 | O=S(=O)([O-])[O-].[Zn+2] [Zinc sulfate] | 0.029 | 
3 | [Cl][Co][Cl] [Cobalt chloride] | 0.021 | 
4 | [Br][Mo][Br] [Molybdenum dibromide, molybdenum dibromide] | 0.008 | 
5 | [Cl][Mn][Cl] [Manganese (II) chloride] | 0.085 | 
6 | O=S(=O)([O-])[O-].[Cu+2] [Copper sulfate] | 0.109 | 
7 | Ferrous sulfate | 0.256 | Restoration of activity after EDTA treatment (dialysis against 1 μM ferrous sulfate): restored
